Laboratory results as given in patent US20220177508A1, “C10-Cyclic Substituted 13-Membered Macrolides and Uses Thereof” (Zikani Therapeutics, Inc., priority 2018, published 2022).
≈ marks a conversion by molar mass, not a printed value.

Assays:
Assay type in all cases: cell-based
K. pneumoniae MP-546 = assay: Broth dilution MIC determination (CLSI), K. pneumoniae MP-546; settings: Klebsiella pneumoniae, MP546; strain MP-546, broth dilution
E. coli MP-4 = assay: Broth dilution MIC determination (CLSI), E. coli MP-4; settings: Escherichia coli, MP4; strain MP-4, broth dilution; read-out: MIC E. coli MP-4
S. aureus MP-12 = assay: Broth dilution MIC determination (CLSI), S. aureus MP-12; settings: Staphylococcus aureus, MP12; strain MP-12, broth dilution
K. pneumoniae MP-648 = assay: Broth dilution MIC determination (CLSI), K. pneumoniae MP-648; settings: Klebsiella pneumoniae, MP648; strain MP-648, broth dilution
A. baumannii MP-15 = assay: Broth dilution MIC determination (CLSI), A. baumannii MP-15; settings: Acinetobacter baumannii, MP15; strain MP-15, broth dilution; read-out: MIC A. baumanii MP-15
P. aeruginosa MP-3 = assay: Broth dilution MIC determination (CLSI), P. aeruginosa MP-3; settings: Pseudomonas aeruginosa, MP3; strain MP-3, broth dilution

SMILES	MIC (K. pneumoniae MP-546)	MIC (E. coli MP-4)	MIC (S. aureus MP-12)	MIC (K. pneumoniae MP-648)	MIC (A. baumannii MP-15)	MIC (P. aeruginosa MP-3)
COCC(C)N1CC([C@@H]2COC(=O)C(C)(C)C(=O)[C@H](C)[C@@H](O[C@@H]3O[C@H](C)C[C@H](N(C)C)[C@H]3O)[C@](C)(OC)C[C@@H](C)CN2C)C1 (stereo partly drawn) [Compound 32, (3R,6R,8R,9R,10R)-9-(((2S,3R,4S,6R)-4-(dimethylamino)-3-hydroxy-6-methyltetrahydro-2H-pyran-2-yl)oxy)-8-methoxy-3-(1-(1-methoxypropan-2-yl)azetidin-3-yl)-4,6,8,10,12,12-hexamethyl-1-oxa-4-azacyclotridecane-11,13-dione]	4 to 32 µg/mL (≈ 6.37 to 51 µM)	< 4 µg/mL	> 32 µg/mL	4 to 32 µg/mL (≈ 6.37 to 51 µM)	> 32 µg/mL	> 32 µg/mL
CO[C@]1(C)C[C@@H](C)CN(C)[C@H](C2CN(CC3CC3)C2)COC(=O)C(C)(C)C(=O)[C@H](C)[C@H]1O[C@@H]1O[C@H](C)C[C@H](N(C)C)[C@H]1O [Compound 37, (3R,6R,8R,9R,10R)-3-(1-(cyclopropylmethyl)azetidin-3-yl)-9-(((2S,3R,4S,6R)-4-(dimethylamino)-3-hydroxy-6-methyltetrahydro-2H-pyran-2-yl)oxy)-8-methoxy-4,6,8,10,12,12-hexamethyl-1-oxa-4-azacyclotridecane-11,13-dione]	< 4 µg/mL	< 4 µg/mL	4 to 32 µg/mL (≈ 6.56 to 52.5 µM)	4 to 32 µg/mL (≈ 6.56 to 52.5 µM)	> 32 µg/mL	> 32 µg/mL
CO[C@]1(C)C[C@@H](C)CN(C)[C@H](C2CN(C(=O)CNC(C)(C)C)C2)COC(=O)C(C)(C)C(=O)[C@H](C)[C@H]1O[C@@H]1O[C@H](C)C[C@H](N(C)C)[C@H]1O [Compound 41, (3R,6R,8R,9R,10R)-3-(1-(tert-butylglycyl)azetidin-3-yl)-9-(((2S,3R,4S,6R)-4-(dimethylamino)-3-hydroxy-6-methyltetrahydro-2H-pyran-2-yl)oxy)-8-methoxy-4,6,8,10,12,12-hexamethyl-1-oxa-4-azacyclotridecane-11,13-dione]	< 4 µg/mL	< 4 µg/mL	4 to 32 µg/mL (≈ 5.98 to 47.8 µM)	4 to 32 µg/mL (≈ 5.98 to 47.8 µM)	> 32 µg/mL	> 32 µg/mL
CO[C@]1(C)C[C@@H](C)CN(C)[C@H](C2CN(Cc3cnn(C)c3)C2)COC(=O)C(C)(C)C(=O)[C@H](C)[C@H]1O[C@@H]1O[C@H](C)C[C@H](N(C)C)[C@H]1O [Compound 49, (3R,6R,8R,9R,10R)-9-(((2S,3R,4S,6R)-4-(dimethylamino)-3-hydroxy-6-methyltetrahydro-2H-pyran-2-yl)oxy)-8-methoxy-4,6,8,10,12,12-hexamethyl-3-(1-((1-methyl-1H-pyrazol-4-yl)methyl)azetidin-3-yl)-1-oxa-4-azacyclotridecane-11,13-dione]	< 4 µg/mL	< 4 µg/mL	4 to 32 µg/mL (≈ 6.16 to 49.2 µM)	4 to 32 µg/mL (≈ 6.16 to 49.2 µM)	> 32 µg/mL	> 32 µg/mL
CO[C@]1(C)C[C@@H](C)CN(C)[C@H](C2CN(C(=O)CCN(C)C)C2)COC(=O)C(C)(C)C(=O)[C@H](C)[C@H]1O[C@@H]1O[C@H](C)C[C@H](N(C)C)[C@H]1O [Compound 50, (3R,6R,8R,9R,10R)-9-(((2S,3R,4S,6R)-4-(dimethylamino)-3-hydroxy-6-methyltetrahydro-2H-pyran-2-yl)oxy)-3-(1-(3-(dimethylamino)propanoyl)azetidin-3-yl)-8-methoxy-4,6,8,10,12,12-hexamethyl-1-oxa-4-azacyclotridecane-11,13-dione]	4 to 32 µg/mL (≈ 6.11 to 48.9 µM)	4 to 32 µg/mL (≈ 6.11 to 48.9 µM)	4 to 32 µg/mL (≈ 6.11 to 48.9 µM)	4 to 32 µg/mL (≈ 6.11 to 48.9 µM)	> 32 µg/mL	> 32 µg/mL
CO[C@]1(C)C[C@@H](C)CN(C)[C@H](C2CN(CCC(C)C)C2)COC(=O)C(C)(C)C(=O)[C@H](C)[C@H]1O[C@@H]1O[C@H](C)C[C@H](N(C)C)[C@H]1O [Compound 51, (3R,6R,8R,9R,10R)-9-(((2S,3R,4S,6R)-4-(dimethylamino)-3-hydroxy-6-methyltetrahydro-2H-pyran-2-yl)oxy)-3-(1-isopentylazetidin-3-yl)-8-methoxy-4,6,8,10,12,12-hexamethyl-1-oxa-4-azacyclotridecane-11,13-dione]	< 4 µg/mL	< 4 µg/mL	4 to 32 µg/mL (≈ 6.39 to 51.1 µM)	4 to 32 µg/mL (≈ 6.39 to 51.1 µM)	4 to 32 µg/mL (≈ 6.39 to 51.1 µM)	> 32 µg/mL
CO[C@]1(C)C[C@@H](C)CN(C)[C@H](C2CN(Cc3cnccn3)C2)COC(=O)C(C)(C)C(=O)[C@H](C)[C@H]1O[C@@H]1O[C@H](C)C[C@H](N(C)C)[C@H]1O [Compound 55, (3R,6R,8R,9R,10R)-9-(((2S,3R,4S,6R)-4-(dimethylamino)-3-hydroxy-6-methyltetrahydro-2H-pyran-2-yl)oxy)-8-methoxy-4,6,8,10,12,12-hexamethyl-3-(1-(pyrazin-2-ylmethyl)azetidin-3-yl)-1-oxa-4-azacyclotridecane-11,13-dione]	4 to 32 µg/mL (≈ 6.17 to 49.4 µM)	4 to 32 µg/mL (≈ 6.17 to 49.4 µM)	4 to 32 µg/mL (≈ 6.17 to 49.4 µM)	> 32 µg/mL	> 32 µg/mL	> 32 µg/mL
CCCN1C[C@H](C)C[C@@](C)(OC)[C@H](O[C@@H]2O[C@H](C)C[C@H](N(C)C)[C@H]2O)[C@@H](C)C(=O)C(C)(C)C(=O)OC[C@H]1[C@H]1C[C@H](N(C)CC(C)C)C1 [Compound 60, (3R,6R,8R,9R,10R)-9-(((2S,3R,4S,6R)-4-(dimethylamino)-3-hydroxy-6-methyltetrahydro-2H-pyran-2-yl)oxy)-3-((1r,3R)-3-(isobutyl(methyl)amino)cyclobutyl)-8-methoxy-6,8,10,12,12-pentamethyl-4-propyl-1-oxa-4-azacyclotridecane-11,13-dione]	4 to 32 µg/mL (≈ 5.99 to 47.9 µM)	< 4 µg/mL	4 to 32 µg/mL (≈ 5.99 to 47.9 µM)	4 to 32 µg/mL (≈ 5.99 to 47.9 µM)	> 32 µg/mL	> 32 µg/mL
CO[C@]1(C)C[C@@H](C)CN(C)[C@H](C2CN(C(=O)CCCN(C)CC3CC3)C2)COC(=O)C(C)(C)C(=O)[C@H](C)[C@H]1O[C@@H]1O[C@H](C)C[C@H](N(C)C)[C@H]1O [Compound 61, (3R,6R,8R,9R,10R)-3-(1-(4-((cyclopropylmethyl)(methyl)amino)butanoyl)azetidin-3-yl)-9-(((2S,3R,4S,6R)-4-(dimethylamino)-3-hydroxy-6-methyltetrahydro-2H-pyran-2-yl)oxy)-8-methoxy-4,6,8,10,12,12-hexamethyl-1-oxa-4-azacyclotridecane-11,13-dione]	4 to 32 µg/mL (≈ 5.64 to 45.1 µM)	4 to 32 µg/mL (≈ 5.64 to 45.1 µM)	> 32 µg/mL	> 32 µg/mL	> 32 µg/mL	> 32 µg/mL

More lines, now with the values ahead:

MIC (K. pneumoniae MP-546)	MIC (E. coli MP-4)	MIC (S. aureus MP-12)	MIC (K. pneumoniae MP-648)	MIC (A. baumannii MP-15)	MIC (P. aeruginosa MP-3)	SMILES
< 4 µg/mL	< 4 µg/mL	4 to 32 µg/mL (≈ 6.14 to 49.1 µM)	4 to 32 µg/mL (≈ 6.14 to 49.1 µM)	> 32 µg/mL	> 32 µg/mL	CO[C@]1(C)C[C@@H](C)CN(C)[C@@H](C2CCN(CC3CCC3)CC2)COC(=O)C(C)(C)C(=O)[C@H](C)[C@H]1O[C@@H]1O[C@H](C)C[C@H](N(C)C)[C@H]1O [Compound 69, (3S,6R,8R,9R,10R)-3-(1-(cyclobutylmethyl)piperidin-4-yl)-9-(((2S,3R,4S,6R)-4-(dimethylamino)-3-hydroxy-6-methyltetrahydro-2H-pyran-2-yl)oxy)-8-methoxy-4,6,8,10,12,12-hexamethyl-1-oxa-4-azacyclotridecane-11,13-dione]
< 4 µg/mL	4 to 32 µg/mL (≈ 6.54 to 52.3 µM)	4 to 32 µg/mL (≈ 6.54 to 52.3 µM)	< 4 µg/mL	> 32 µg/mL	> 32 µg/mL	CCN(C)[C@H]1C[C@H]([C@@H]2COC(=O)C(C)(C)C(=O)[C@H](C)[C@@H](O[C@@H]3O[C@H](C)C[C@H](N(C)C)[C@H]3O)[C@](C)(OC)C[C@@H](C)CN2C)C1 [Compound 71, (3R,6R,8R,9R,10R)-9-(((2S,3R,4S,6R)-4-(dimethylamino)-3-hydroxy-6-methyltetrahydro-2H-pyran-2-yl)oxy)-3-((1r,3R)-3-(ethyl(methyl)amino)cyclobutyl)-8-methoxy-4,6,8,10,12,12-hexamethyl-1-oxa-4-azacyclotridecane-11,13-dione]
< 4 µg/mL	< 4 µg/mL	4 to 32 µg/mL (≈ 5.73 to 45.8 µM)	4 to 32 µg/mL (≈ 5.73 to 45.8 µM)	> 32 µg/mL	> 32 µg/mL	CO[C@]1(C)C[C@@H](C)CN(C)[C@@H](C2CCN(C[C@H]3COC(C)(C)O3)CC2)COC(=O)C(C)(C)C(=O)[C@H](C)[C@H]1O[C@@H]1O[C@H](C)C[C@H](N(C)C)[C@H]1O [Compound 86, (3S,6R,8R,9R,10R)-3-(1-(((S)-2,2-dimethyl-1,3-dioxolan-4-yl)methyl)piperidin-4-yl)-9-(((2S,3R,4S,6R)-4-(dimethylamino)-3-hydroxy-6-methyltetrahydro-2H-pyran-2-yl)oxy)-8-methoxy-4,6,8,10,12,12-hexamethyl-1-oxa-4-azacyclotridecane-11,13-dione]
< 4 µg/mL	< 4 µg/mL	4 to 32 µg/mL (≈ 6.25 to 50 µM)	4 to 32 µg/mL (≈ 6.25 to 50 µM)	> 32 µg/mL	> 32 µg/mL	CCCN1C[C@H](C)C[C@@](C)(OC)[C@H](O[C@@H]2O[C@H](C)C[C@H](N(C)C)[C@H]2O)[C@@H](C)C(=O)C(C)(C)C(=O)OC[C@H]1[C@H]1C[C@H](N(C)CC)C1 [Compound 94, (3R,6R,8R,9R,10R)-9-(((2S,3R,4S,6R)-4-(dimethylamino)-3-hydroxy-6-methyltetrahydro-2H-pyran-2-yl)oxy)-3-((1r,3R)-3-(ethyl(methyl)amino)cyclobutyl)-8-methoxy-6,8,10,12,12-pentamethyl-4-propyl-1-oxa-4-azacyclotridecane-11,13-dione]
